Calls of active or inactive are those of the source.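 The calls were made as follows: active = compounds giving half or more protection of infected cells from virus-caused growth loss, again on retest; inactive = the rest.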
Tested on: CEM cells HIV-1 protection, formazan growth assay
Experiment: NCI AIDS Antiviral Assay
Conditions: for IC50: measured here: growth of uninfected CEM cells
Outline: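 Human CEM cells, uninfected and HIV-1-infected, exposed to five drug concentrations; growth measured by soluble formazan assay and scored as percent protection from infection, with protecting compounds retested.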

## COC1=C(C)C(=O)C(=O)c2ccc(C)nc21
  outcome: inactive

## COc1ccc(-c2oc3cc(O)cc(O)c3c(=O)c2OC)cc1
  outcome: inactive

## COc1ccc2[nH]c3c(c2c1)[C@H](C)C[C@@H]1C(=O)N(c2ccccc2)C(=O)[C@H]31
  outcome: inactive

## CCN(Cc1cccc(S(=O)(=O)[O-])c1)c1ccc(C(=C2C=CC(=[N+](CC)Cc3cccc(S(=O)(=O)O)c3)C=C2)c2ccccc2S(=O)(=O)O)cc1
  outcome: inactive

## N#Cc1c(O)c(N=Nc2ccccc2F)c(=O)n2c1[nH]c1ccccc12
  EC50: > 200 µM
  IC50: 18.6 µM

## CCN1C(=O)C(N2CCCCC2)S/C1=C\C(=O)O (centres undefined)
  EC50: > 933 µM
  IC50: 457 µM

## Nc1ncnc2c1ncn2CC(O)C(=O)O (centres undefined)
  outcome: inactive

## CC(=O)N/C(=C\c1cccc([N+](=O)[O-])c1)c1nc2c3c(ccc2[nH]1)C(=O)c1ccccc1C3=O
  outcome: inactive

## COC(=O)c1cc(=O)nc(NN)s1
  EC50: > 50.1 µM
  IC50: > 50.1 µM

## CC1CC(=O)Nc2cc(C(F)(F)F)ccc2N1 (centres undefined)
  EC50: > 200 µM
  IC50: > 200 µM

## CCOC(=O)C1(O)Nc2ncncc2N(C)C1=O (centres undefined)
  EC50: > 200 µM
  IC50: > 200 µM

## CC12CCC([C@H](C(O)C3CCCCC3)C1=O)C2(C)C (some centres undefined)
  EC50: > 200 µM
  IC50: 52.5 µM

## CC(=O)NC1NCCNC1=O (centres undefined)
  EC50: > 200 µM
  IC50: > 200 µM

## COc1cc(-c2cc(=O)c3c(O)cc(C)cc3o2)cc(OC)c1OC
  EC50: > 200 µM
  IC50: > 200 µM

## NC(CCc1ncc(C(=O)O)s1)C(=O)O (centres undefined)
  outcome: inactive

## CCOC(=O)C(Cc1ccc(N=NN(C)C)cc1)NC(=O)CC1c2ccccc2-c2ccccc21 (centres undefined)
  EC50: > 11 µM
  IC50: 6.46 µM

## O=C(c1ccc(Cl)cc1Cl)N(C(=O)N1CCC(c2ccccc2)CC1)c1ccccc1
  EC50: > 200 µM
  IC50: > 200 µM

## CSc1n[nH]c(NC(=O)c2ccccc2Cl)n1
  EC50: > 132 µM
  IC50: > 132 µM

## O=S(=O)(O)c1cc2onnc2c2ccccc12
  EC50: > 1000 µM
  IC50: 525 µM

## Cc1cccc(-c2nc(-c3cnccn3)n(Cc3ccccc3)n2)c1
  EC50: > 200 µM
  IC50: > 200 µM

## COc1ccc(/C(CC2OC(=O)c3ccccc32)=N\NC(N)=O)cc1 (centres undefined)
  EC50: > 339 µM
  IC50: > 339 µM

## C#CCNC(CS)C(=O)O (centres undefined)
  EC50: > 200 µM
  IC50: > 200 µM

## CCCCCC[C@H]1CC(=O)C2CCCC[C@@]23CC[C@H](CCl)N13 (some centres undefined) (tested in a mixture with another compound)
  EC50: > 200 µM
  IC50: 105 µM

## CCCCN(CCCC)c1c([N+](=O)[O-])c(=O)nc2ccccn12
  EC50: > 794 µM
  IC50: 1.7 µM

## CC(=O)O[C@H]1C(=O)[C@@]2(C)[C@H]([C@H](OC(=O)c3ccccc3)[C@]3(O)C[C@H](OC(=O)[C@H](O)[C@@H](NC(=O)c4ccccc4)c4ccccc4)C(C)=C1C3(C)C)[C@]1(OC(C)=O)CO[C@@H]1C[C@@H]2O
  EC50: > 0.417 µM
  IC50: 0.0135 µM

## OC(c1ccc(Cl)cc1)(c1ccc(Cl)cc1)c1cncnc1
  outcome: inactive

## CNC(=S)N/N=C/c1cccc(C)n1
  EC50: > 200 µM
  IC50: 19.5 µM

## O=C1/C(=N\O)S(=O)(=O)c2ccccc21
  outcome: inactive

## CCC(=O)ONC(=O)Cn1ccc([N+](=O)[O-])n1
  EC50: > 200 µM
  IC50: 66.1 µM

## CCN(C(=O)N[C@@H](Cc1ccccc1)C(=O)N[C@@H](CC(C)C)C(=O)NC)c1ccccc1
  EC50: > 200 µM
  IC50: 195 µM

## Cc1cc(O)c(C(C)(C)C)cc1Sc1cc(C(C)(C)C)c(O)cc1C
  EC50: > 200 µM
  IC50: 6.46 µM

## C/C(=N\NC(=S)NCCCCNC(=S)N/N=C(\C)c1ccccn1)c1ccccc1
  EC50: > 200 µM
  IC50: 1.62 µM

## CCCC(=O)NC(Nc1ccc(S(=O)(=O)Nc2nc(C)cc(C)n2)cc1)(C(F)(F)F)C(F)(F)F
  EC50: > 200 µM
  IC50: > 200 µM

## Cc1ccc(N2C(=O)CS/C2=C(\C#N)c2nc3ccccc3[nH]2)cc1
  EC50: > 200 µM
  IC50: > 200 µM

## COC(=O)CC1COC(C)(C)O1 (centres undefined)
  outcome: inactive

## O=C(OCCN1CCCC12CCCCC2)C(c1ccccc1)C1CCCC1 (centres undefined)
  EC50: > 200 µM
  IC50: 7.76 µM

## CC(C#N)N(C(C)C#N)N(C)C (centres undefined)
  outcome: inactive

## COc1ccc(-c2nnc3n(Cc4ccccc4)c4ccccc4n3c2=O)cc1
  EC50: > 200 µM
  IC50: > 200 µM

## COc1ccc(Cn2c3ccc([N+](=O)[O-])cc3c(=O)n2Cc2ccccn2)cc1
  EC50: > 200 µM
  IC50: > 200 µM

## Nc1ccc2c(SCc3ccc([N+](=O)[O-])cc3)c3ccccc3nc2c1
  EC50: > 20 µM
  IC50: 3.02 µM

## CC(=O)Nc1ccc2c(C(=O)O)c(C)c(=O)[nH]c2n1
  EC50: > 200 µM
  IC50: 112 µM

## CCOC(=O)c1cn(-c2ccccc2)c(=S)n2c1nc1ccccc12
  EC50: > 200 µM
  IC50: 7.59 µM

## CCOC(=O)Cc1oc2c(C(C)=O)c(O)c(C)c(O)c2c1C
  EC50: > 200 µM
  IC50: 81.3 µM

## COc1ccc2c(c1)CC1NC2Cc2ccccc21 (centres undefined)
  outcome: inactive

## O=C(O)c1ccc2c(c1)CC1(C2)Cc2cc3c(cc2C1=O)CCC3 (centres undefined)
  EC50: > 200 µM
  IC50: 85.1 µM

## COC1=CC=C2CC(=C1)CCC1C2CCC2(C)C(=O)CCC12 (centres undefined)
  outcome: inactive

## O=[N+]([O-])C(/C=C(\Cl)[N+](=O)[O-])=C(Nc1ccccc1)Nc1ccccc1
  EC50: > 200 µM
  IC50: 6.61 µM

## CNC(=O)OCCOC(=O)c1ccc(OC(=O)NC)cc1
  EC50: > 200 µM
  IC50: 70.8 µM

## CCCCOP(=S)(OCCCC)SC1(SC)SSC=C1CC(C)(C)C (centres undefined)
  outcome: inactive

## N#Cc1c(N)[nH]c(S)c1C#N
  EC50: > 123 µM
  IC50: 72.4 µM

## Cc1c(C2Cc3ccccc3N2)c2ccccc2n1C (centres undefined)
  EC50: > 603 µM
  IC50: 195 µM

## O=C1c2cccc3cc([N+](=O)[O-])cc(c23)C(=O)N1O
  EC50: > 200 µM
  IC50: 12 µM

## N#Cc1c(-c2ccccc2)cc(-c2ccc(N)cc2)[nH]c1=O
  EC50: > 18.2 µM
  IC50: > 18.2 µM

## O=C1C2CC=CCC2C(=O)N1n1c(Cc2ccc(Cl)cc2)n[nH]c1=O (centres undefined)
  EC50: > 200 µM
  IC50: > 200 µM

## O=c1n(CCCN2CCOCC2)nc2n1-c1ccc3ccccc3c1SC2
  EC50: > 200 µM
  IC50: 33.9 µM

## N#C/C(=C1\SC(N=Nc2ccc(Cl)cc2)C(=O)N1c1ccccc1)c1nc2ccccc2[nH]1 (centres undefined)
  EC50: > 3.8 µM
  IC50: > 3.8 µM

## C=C1c2nc3ccccc3n2C=C(c2ccc(C)cc2)N1c1ccc(OC)cc1
  EC50: > 200 µM
  IC50: 11.5 µM

## CN(C)C=C(S(C)(=O)=O)S(C)(=O)=O
  EC50: > 200 µM
  IC50: 126 µM

## CC1(C)CCCC2CC2CCC(C)(C)C1=O (centres undefined)
  EC50: > 200 µM
  IC50: 105 µM

## CCCCC(=O)c1c(O)nc2sccn2c1=O
  EC50: > 200 µM
  IC50: 155 µM

## CC(C)(C)OC(=O)NC(CSSCC(NC(=O)OC(C)(C)C)C(=O)O)C(=O)O (centres undefined)
  EC50: > 200 µM
  IC50: > 200 µM

## CSc1nc(Nc2cccc(C(F)(F)F)c2)c2c(N)nn(C)c2n1
  EC50: > 200 µM
  IC50: > 200 µM

## CC(=O)N1N=C(c2ccc3ccccc3c2O)CC1C(=O)c1ccco1 (centres undefined)
  EC50: > 200 µM
  IC50: 23.4 µM

## O=C(N/C=C(/c1ccccc1)S(=O)Cc1ccccc1)Nc1ccccc1Cl (centres undefined)
  EC50: > 501 µM
  IC50: 17.4 µM

## C=CCN1C(=O)CSC1=S
  EC50: > 288 µM
  IC50: 13.5 µM

## COc1ccc(N2CCOCC2)cc1
  outcome: inactive

## CCCC1CC(=O)NC(=O)C1C(=O)OC(C)(C)C (centres undefined)
  EC50: > 200 µM
  IC50: > 200 µM
